The numbers were not newly measured in patent US6491617B1, “Medical devices that resist restenosis” (St. Jude Medical, Inc., priority 1999, dated 2002), which cites them from elsewhere.

The conditions of this data set: nitric oxide-releasing agent, test system not stated.

For the molecule `NCCCNCCCCNCCCN` [Spermine, H2N(CH2)3NH2^+(CH2)4N[NONO]^−(CH2)3NH2], the IC50 (read-out: IC-50 concentration, i.e., a concentration at 50 percent effectiveness) was 19.7 nM.
Consider NaO[NONO]Na [nitro percide], for which the effective concentration is 25 nM.
